The values below are quoted from earlier work in patent US20020082306A1, “Aqueous formulation of beta carotene” (Sanochemia Pharmazeutika Aktiengesellschaft, priority 1998, published 2002).

The conditions of data set [1]: in the presence of light and heat.

As for `CC1=C(/C=C/C(C)=C/C=C/C(C)=C/C=C/C=C(C)/C=C/C=C(C)/C=C/C2=C(C)CCCC2(C)C)C(C)(C)CCC1` [Beta-carotene, beta-carotene], the solubility in cyclohexane result (cyclohexane) was “hardly soluble”. Under “ethanol”, the solubility in ethanol entry was “hardly soluble”. For the same compound, the solubility in ether result (ether) is recorded as “hardly soluble”. The solubility in water entry (water as well as the usually employed aqueous formulations) was “practically insoluble”. For the same compound, the “decomposition of dissolved beta-carotene by oxygen from ambient air” value in data set [1] is “easily decomposed”.
